Measured values reported in publication PMC4117522, “Proteasome Inhibitors Alter Levels of Intracellular Peptides in HEK293T and SH-SY5Y Cells” (PLoS ONE, 2014).
“And” between values parts separate entries of the source, which are not always exact repeats. Equal values may be shown once. Residues, ends and D or L forms follow the SMILES beside them. *: point of attachment. Cbz = O=C(OCc1ccccc1)*

Tested on: HEK293T cells
Assay: Quantitative peptidomics (TMAB isotopic labels, LC-MS/MS) of inhibitor-treated HEK293T cells
Format: cell-based, human
Experimental: HEK293T and SH-SY5Y cells were grown to 80–90% confluence in DMEM and RPMI supplemented with 10% fetal bovine serum and penicillin/streptomycin. A single plate of cells (150 mm×25 mm) was used for each group. At the start of the experiment, media were removed from the plates and cells were washed with DPBS (138 mM NaCl, 8.06 mM Na2HPO4, 2.67 mM KCl, 1.47 mM KH2PO4, 0.9 mM CaCl2 and 0.49 mM MgCl2). This was followed by addition of serum-free media containing the proteasome or aminopeptidase inhibitors, or 0.05% DMSO as a control for the inhibitors that were soluble in DMSO. Each experiment consisted of two control groups and two or three replicate groups of cells treated with one of the inhibitors. The cells were incubated at 37°C for 20 minutes, following which media containing the inhibitor was removed, cells were washed with DPBS, detached from the plate by scraping into DPBS (without trypsin), and centrifuged at 800×g for 5 min. The wash buffer was supplemented with the appropriate inhibitor at the same concentration as used for the treatment, thereby ensuring that the changes induced in peptide levels were not reversed during harvesting of cells due to possible dissociation of the reversible inhibitors. The wash time (including centrifugation) was 15 minutes, for a total treatment time of 35 minutes. After centrifugation, the cell pellet was resuspended in 1 ml of 80°C water and incubated in an 80°C water bath for 20 minutes to inactivate proteases. The mixture was again centrifuged (13,000×g, 30 min, 4°C) and was stored at −80°C overnight. For peptide extraction, the samples were thawed and centrifuged again. The lysate was subsequently cooled on ice and acidified with HCl to a final concentration of 10 mM. After 15 min incubation on ice, the lysate was centrifuged at 13,000×g for 30 min at 4°C. To the supernatant, 250 µL of dibasic sodium phosphate (0.4 M, pH 9.5) was added and the mixture was stored at −80°C until labeling.
The labeling protocol has been earlier described in detail. Each group within an experiment (control/treated) was labeled with a different isotopic tag. The TMAB-NHS labels were dissolved in DMSO to a concentration of 400 µg/µL and 15 mg of label was used per 150 mm plate of cells. […] At the beginning, the pH of the peptide extract was adjusted to 9.5 with 1 M NaOH. Labeling was performed over 8 rounds; 4.69 µL of the label was added to the extract every 20 min. The pH was measured between each round and if necessary, brought back to 9.5 for the first five rounds. For rounds 6–8, the pH was not adjusted after the addition of the TMAB-NHS reagent. After the final round of label addition, the pH was adjusted to 9.5 again and the extracts were incubated at room temperature for 90 min. Thereafter, 30 µL of 2.5 M glycine was added to quench any unreacted label. Following 40 min incubation at room temperature, the labeled extracts for a single experiment were pooled and filtered through Amicon Ultracel-10 K units. It is important to ensure that only N-terminal amines and lysine side-chain amines of peptides are TMAB-labeled and not tyrosines. To hydrolyze any labeled tyrosine, 30 µL of a 2 M solution of hydroxylamine hydrochloride (pH 3.7) was added over three rounds to the pooled and filtered sample. The pH was measured after the addition of hydroxylamine and adjusted to 9.0 with 1 M NaOH. The samples were desalted through PepClean C-18 spin columns (Thermo Scientific, Rockford, IL, USA) by following manufacturer’s instructions. Peptides were eluted using 160 µL of 0.5% TFA and 70% acetonitrile, frozen at −80°C and then lyophilized in a vacuum centrifuge and stored at −80°C until analysis by mass spectrometry.
The LC-MS/MS experiments were performed on a Synapt G2 mass spectrometer coupled to a NanoAcquity capillary liquid chromatography system (Waters Co., Milford, MA, USA).

CC(=O)N[C@@H](CSC(=O)[C@]1([C@@H](O)C(C)C)NC(=O)[C@H](C)[C@@H]1O)C(=O)O [Lactacys]
Relative Levels of peptide AKADGIVSKNF (RPS21) (1 uM, 35', HEK): 0.16 and 0.15
Relative Levels of peptide Ac-ASKRALVIL (PARK7) (1 uM, 35', HEK): < 0.20 and 0.26
Relative Levels of peptide Ac-ASKRALVILA (PARK7) (1 uM, 35', HEK): 0.29 and 0.31
Relative Levels of peptide Ac-MDTSRVQPIKL (RPS28) (1 uM, 35', HEK): 0.31 and 0.28
Relative Levels of peptide Ac-MDTSRVQPIKLAR (RPS28) (1 uM, 35', HEK): 0.52 and 0.70
Relative Levels of peptide Ac-SSEEGKLFVGGLNF (RBM3) (1 uM, 35', HEK): 0.39 and 0.30
Relative Levels of peptide Ac-SYGRPPPDVEGMTSLKVDNL (SRSF2) (1 uM, 35', HEK): 0.40 and 0.50
Relative Levels of peptide GAIRDIDL (SRSF1) (1 uM, 35', HEK): < 0.20
Relative Levels of peptide GFGDLKSPAGLQVL (EEF1B2) (1 uM, 35', HEK): 0.19 and 0.14
Relative Levels of peptide GVQVETISPGDGRTFPKRGQT (FKBP1A) (1 uM, 35', HEK): 0.31 and 0.26
Relative Levels of peptide KHTGPGILSM (PPIA) (1 uM, 35', HEK): 0.25 and 0.22

CC[C@H](C)[C@H](NC(=O)[C@H]([C@@H](C)CC)N(C)C(C)=O)C(=O)N[C@H](C(=O)N[C@@H](CC(C)C)C(=O)[C@@]1(C)CO1)[C@@H](C)O [Epox.]
Relative Levels of peptide AAETVTKGGIMLPEKSQGKVLQA (HSPE1) (0.2 uM, 1h, HEK): < 0.20
Relative Levels of peptide ADKVPKTAENFRAL (PPIA) (0.2 uM, 1h, HEK): < 0.20
Relative Levels of peptide AGAAVDELGKVLTPTQV (PEBP1) (0.2 uM, 1h, HEK): < 0.20
Relative Levels of peptide AKADGIVSKNF (RPS21) (0.2 uM, 1h, HEK): < 0.20
Relative Levels of peptide APIKVGDAIPAVEVF (PRDX5) (0.2 uM, 1h, HEK): < 0.20
Relative Levels of peptide APPTAYIDFARQK (TPI1) (0.2 uM, 1h, HEK): 0.58 and 0.64
Relative Levels of peptide ASQPDVDGFLVGGASLKPEFVDIINA (TPI1) (0.2 uM, 1h, HEK): < 0.20
Relative Levels of peptide ASQPDVDGFLVGGASLKPEFVDIINAKQ (TPI1) (0.2 uM, 1h, HEK): 1.17 and 1.09
Relative Levels of peptide AVDGEPLGRVSF (PPIA) (0.2 uM, 1h, HEK): < 0.20
Relative Levels of peptide Ac-AAPVDLELKKAFTEL (PFDN1) (0.2 uM, 1h, HEK): < 0.20
Relative Levels of peptide Ac-ANLERTFIAIKPDGV (NME2) (0.2 uM, 1h, HEK): < 0.20
Relative Levels of peptide Ac-ASKRALVIL (PARK7) (0.2 uM, 1h, HEK): < 0.20
Relative Levels of peptide Ac-ASKRALVILA (PARK7) (0.2 uM, 1h, HEK): < 0.20
Relative Levels of peptide Ac-MDTSRVQPIKL (RPS28) (0.2 uM, 1h, HEK): < 0.20
Relative Levels of peptide Ac-MDTSRVQPIKLAR (RPS28) (0.2 uM, 1h, HEK): 0.95
Relative Levels of peptide Ac-SSEEGKLFVGGLNF (RBM3) (0.2 uM, 1h, HEK): < 0.20
Relative Levels of peptide Ac-SYGRPPPDVEGMTSLKVDNL (SRSF2) (0.2 uM, 1h, HEK): 0.23 and 0.32
Relative Levels of peptide Ac-[…] (COX6B1) (0.2 uM, 1h, HEK): < 0.20
Relative Levels of peptide EDENFILKHTGPGILSM (PPIA) (0.2 uM, 1h, HEK): < 0.20
Relative Levels of peptide GAIRDIDL (SRSF1) (0.2 uM, 1h, HEK): 0.29 and 0.33
Relative Levels of peptide GFGDLKSPAGLQVL (EEF1B2) (0.2 uM, 1h, HEK): < 0.20
Relative Levels of peptide GISTPEELGLDKV (COX5A) (0.2 uM, 1h, HEK): < 0.20
Relative Levels of peptide GVQVETISPGDGRTFPKRGQT (FKBP1A) (0.2 uM, 1h, HEK): 0.72 and 0.45
Relative Levels of peptide KHTGPGILSM (PPIA) (0.2 uM, 1h, HEK): < 0.20
Relative Levels of peptide PGIVELPTLEEL (NDUFA8) (0.2 uM, 1h, HEK): < 0.20
Relative Levels of peptide SAMTEEAAVAIKAMAK (EIF5A) (0.2 uM, 1h, HEK): 0.36 and 0.21
Relative Levels of peptide SLGELIGTLNA (TPI1) (0.2 uM, 1h, HEK): 0.29 and < 0.20
Relative Levels of peptide VNPTVFFDI (PPIA) (0.2 uM, 1h, HEK): < 0.20
Relative Levels of peptide AAETVTKGGIMLPEKSQGKVLQA (HSPE1) (2 uM, 1h, HEK): < 0.20
Relative Levels of peptide ADKVPKTAENFRAL (PPIA) (2 uM, 1h, HEK): < 0.20
Relative Levels of peptide AGAAVDELGKVLTPTQV (PEBP1) (2 uM, 1h, HEK): < 0.20
Relative Levels of peptide AKADGIVSKNF (RPS21) (2 uM, 1h, HEK): < 0.20
Relative Levels of peptide APIKVGDAIPAVEVF (PRDX5) (2 uM, 1h, HEK): < 0.20
Relative Levels of peptide ASQPDVDGFLVGGASLKPEFVDIINA (TPI1) (2 uM, 1h, HEK): < 0.20
Relative Levels of peptide ASQPDVDGFLVGGASLKPEFVDIINAKQ (TPI1) (2 uM, 1h, HEK): < 0.20
Relative Levels of peptide AVDGEPLGRVSF (PPIA) (2 uM, 1h, HEK): < 0.20
Relative Levels of peptide Ac-AAPVDLELKKAFTEL (PFDN1) (2 uM, 1h, HEK): < 0.20
Relative Levels of peptide Ac-AEEGIAAGGVMDVNTALQEVLKT (RPS12) (2 uM, 1h, HEK): 0.61 and 0.42
Relative Levels of peptide Ac-ANLERTFIAIKPDGV (NME2) (2 uM, 1h, HEK): < 0.20
Relative Levels of peptide Ac-ASKRALVIL (PARK7) (2 uM, 1h, HEK): < 0.20
Relative Levels of peptide Ac-ASKRALVILA (PARK7) (2 uM, 1h, HEK): < 0.20
Relative Levels of peptide Ac-MDTSRVQPIKL (RPS28) (2 uM, 1h, HEK): < 0.20
Relative Levels of peptide Ac-MDTSRVQPIKLAR (RPS28) (2 uM, 1h, HEK): 0.64 and 0.94
Relative Levels of peptide Ac-MDTSRVQPIKLARVTKV (RPS28) (2 uM, 1h, HEK): < 0.20
Relative Levels of peptide Ac-SSEEGKLFVGGLNF (RBM3) (2 uM, 1h, HEK): < 0.20
Relative Levels of peptide Ac-SYGRPPPDVEGMTSLKVDNL (SRSF2) (2 uM, 1h, HEK): < 0.20
Relative Levels of peptide EDENFILKHTGPGILSM (PPIA) (2 uM, 1h, HEK): < 0.20
Relative Levels of peptide GESDDSILRLAKADGIVSKNF (RPS21) (2 uM, 1h, HEK): < 0.20
Relative Levels of peptide GFGDLKSPAGLQVL (EEF1B2) (2 uM, 1h, HEK): 0.54 and 0.68
Relative Levels of peptide GISTPEELGLDKV (COX5A) (2 uM, 1h, HEK): 0.38 and 0.45
Relative Levels of peptide KHTGPGILSM (PPIA) (2 uM, 1h, HEK): < 0.20
Relative Levels of peptide PGIVELPTLEEL (NDUFA8) (2 uM, 1h, HEK): < 0.20
Relative Levels of peptide SAMTEEAAVAIKAMAK (EIF5A) (2 uM, 1h, HEK): < 0.20
Relative Levels of peptide SLGELIGTLNA (TPI1) (2 uM, 1h, HEK): 0.52 and 0.30
Relative Levels of peptide VNPTVFFDI (PPIA) (2 uM, 1h, HEK): < 0.20

CC(C)C[C@@H](C=O)NC(=O)[C@H](CC(C)C)NC(=O)[C@H](CC(C)C)NC(=O)OCc1ccccc1 [MG132, reference compound] (Cbz-Leu-Leu-Leu-aldehyde)
change in levels of intracellular peptides (peptidome) (HEK293T cells, 35 min, 2.5 µM MG132, 1 µM other inhibitors): the majority of peptides was greatly decreased
